Columns and labels:
HCMV [1] = experiment: Viral inactivation assay; assay type: cell-based, human cytomegalovirus; conditions: HCMV, HEL cells; CHLA 60 μM, PUG 40 μM, Heparin 30 μg/ml
HCV [2] = experiment: Viral attachment assay, method 2 (virus-specific cellular ELISA); assay type: cell-based, hepatitis C virus; conditions: HCV MOI 0.1, ELISA, 4°C; highest inhibitory concentration of the compounds
DENV-2 [3] = experiment: Analysis of drug effects post viral entry; assay type: cell-based, dengue virus type 2; conditions: DENV-2, Vero cells; CHLA 25 μM, PUG 25 μM, Heparin 200 μg/ml
HCMV [4] = experiment: Viral penetration assay; assay type: cell-based, human cytomegalovirus; conditions: HCMV
HCV [5] = experiment: Viral penetration assay; assay type: cell-based, hepatitis C virus; conditions: HCV
DENV-2 [6] = experiment: Viral inactivation assay; assay type: cell-based, dengue virus type 2; conditions: DENV-2, Vero cells; CHLA 25 μM, PUG 25 μM, Heparin 200 μg/ml
HCMV [7] = experiment: Viral attachment assay, method 1 (host cell infection); assay type: cell-based, human cytomegalovirus; conditions: HCMV, HEL cells, 4°C; CHLA 60 μM, PUG 40 μM, Heparin 30 μg/ml
DENV-2 [8] = experiment: Viral attachment assay, method 2 (virus-specific cellular ELISA); assay type: cell-based, dengue virus type 2; conditions: DENV-2 MOI 5, ELISA, 4°C; highest inhibitory concentration of the compounds
RSV [9] = experiment: Viral cell-to-cell spread assay; assay type: cell-based, respiratory syncytial virus; conditions: RSV
MV [10] = experiment: Viral attachment assay, method 1 (host cell infection); assay type: cell-based, measles virus; conditions: MV, CHO-SLAM cells, 4°C; CHLA 90 μM, PUG 50 μM, Heparin 10 μg/ml
HCV [11] = experiment: as above; assay type: cell-based, hepatitis C virus; conditions: HCV, Huh-7.5 cells, 4°C; CHLA 50 μM, PUG 50 μM, Heparin 1000 μg/ml
HCMV [12] = experiment: Viral cell-to-cell spread assay; assay type: cell-based, human cytomegalovirus; conditions: HCMV
DENV-2 [13] = experiment: Viral cell-to-cell spread assay; assay type: cell-based, dengue virus type 2
HCV [14] = experiment: Analysis of drug effects post viral entry; assay type: cell-based, hepatitis C virus; conditions: HCV, Huh-7.5 cells; CHLA 50 μM, PUG 50 μM, Heparin 1000 μg/ml
MV [15] = experiment: Viral penetration assay; assay type: cell-based, measles virus; conditions: MV
HCV [16] = experiment: Viral cell-to-cell spread assay; assay type: cell-based, hepatitis C virus; conditions: HCV
Method: (A) Schematic of the experiment (left) with the virus concentration (PFU/well) and step-wise incubation periods (i, ii, iii) indicated for each virus in the table on the right. Virus infections were established (i) in the different cell types by direct inoculation (HCMV, DENV-2, MV, and RSV) or electroporation of viral RNA (HCV; *), and the cell monolayers were washed with citrate buffer or PBS before being covered with an overlay medium that prevents secondary infection. Initial virus plaques were allowed to form in the subsequent infections (ii), and then the test compounds were added to the overlay medium for an additional time of incubation (iii) before analysis of viral plaque size by immune fluorescence microscopy. Five random virus-positive plaques at the endpoint of the experiment were evaluated for each treatment group of viruses, and the data was plotted as “fold change of plaque area” against the size of the initial viral plaques formed prior to test compound treatment. Analyses for (B) HCMV, (C) HCV, (D) DENV-2, (E) MV, and (F) RSV are indicated in each additional panel. The S29 cell line and the FIP inhibitor were included as controls for HCV and MV, respectively. Results shown are means ± SEM from three independent experiments and representative micrographs of the evaluated plaques are provided in Additional file 1 Figure S1, Additional file 2 Figure S2, Additional file 3 Figure S3, Additional file 4 Figure S4 and Additional file 5 Figure S5. See text for details.
The examination of HCV spread is based on previously described protocol with some modifications. Huh-7.5 cells were electroporated with HCV Jc1FLAG2(p7-nsGluc2A) RNA (10 μg) as described above to establish random productive infections in the cell population, and then mixed with naïve cells at a ratio of 1:1 before seeding in 12-well plates. […] Medium was changed 24 h post-electroporation with an overlay medium containing the test drugs or control and 0.5% methylcellulose, and the plates were further incubated for 5 days before analysis of HCV-positive foci through immunostaining.
For immunofluorescence analysis of viral plaque size due to spread, the overlay media were removed and the wells were fixed with ice-cold methanol before blocking with 3% BSA. Samples were then treated at 37°C for 1 h with the respective mouse monoclonal primary antibodies diluted in PBS containing 3% BSA: anti-HCMV gB antibody (1:1,000), anti-NS5A 9E10 antibody for HCV (1:25,000), anti-flavivirus group antibody (1:400) for DENV-2, and anti-RSV fusion protein antibody (1:1,000). After incubation, the wells were washed with PBS three times before applying Alexa Fluor 488 goat anti-mouse IgG (H + L) antibody (Invitrogen), diluted at 1:1,000 (HCMV and RSV) or 1:400 (DENV-2 and HCV) in PBS containing 3% BSA. Following incubation at 37°C for 1 h, the samples were washed with PBS three times prior to visualization by fluorescence microscopy. The fluorescence expression of MV-EGFP could be readily detected without addition of antibodies. Photomicrographs were taken at × 100 magnification (Leica Microsystems; Wetzlar, Germany) and viral plaque sizes were then analyzed with MetaMorph software (Molecular Devices; Sunnyvale, CA, USA). In the case of HCV, cellular nuclei were stained with Hoechst dye (Sigma) prior to visualization and the number of cells in the virus-positive foci was determined. For all virus tested, a total of five random virus-positive plaques were evaluated for each treatment group per independent experiment. Comparison was made between viral plaques stained prior to drug addition and those at the endpoint of the experiment, and the data were plotted as “fold change of plaque area”.

MV [17] = experiment: Viral cell-to-cell spread assay; assay type: cell-based, measles virus; conditions: MV
RSV [18] = experiment: Viral inactivation assay; assay type: cell-based, respiratory syncytial virus; conditions: RSV, HEp-2 cells; CHLA 1 μM, PUG 2 μM, Heparin 1 μg/ml
ADV-5 = test system: ADV-5; design: method as in PMID 16894186, PMID 10704346; conditions: HS-mediated entry; ref [51], [52]; cited from earlier work
HCMV [19] = experiment: Analysis of drug effects post viral entry; assay type: cell-based, human cytomegalovirus; conditions: HCMV, HEL cells; CHLA 60 μM, PUG 40 μM, Heparin 30 μg/ml
DENV-2 [20] = experiment: Viral penetration assay; assay type: cell-based, dengue virus type 2; conditions: DENV-2, Vero cells; CHLA 25 μM, PUG 25 μM, Heparin 200 μg/ml
RSV [21] = experiment: Viral attachment assay, method 1 (host cell infection); assay type: cell-based, respiratory syncytial virus; conditions: RSV, HEp-2 cells, 4°C; CHLA 1 μM, PUG 2 μM, Heparin 1 μg/ml
RSV [22] = experiment: Viral attachment assay, method 2 (virus-specific cellular ELISA); assay type: cell-based, respiratory syncytial virus; conditions: RSV MOI 5, ELISA, 4°C; highest inhibitory concentration of the compounds
MV [23] = experiment: Analysis of drug effects post viral entry; assay type: cell-based, measles virus; conditions: MV, CHO-SLAM cells; CHLA 90 μM, PUG 50 μM, Heparin 10 μg/ml
HCMV [24] = experiment: Viral attachment assay, method 2 (virus-specific cellular ELISA); assay type: cell-based, human cytomegalovirus; conditions: HCMV MOI 5, ELISA, 4°C; highest inhibitory concentration of the compounds
DENV-2 [25] = experiment: Viral attachment assay, method 1 (host cell infection); assay type: cell-based, dengue virus type 2; conditions: DENV-2, Vero cells, 4°C; CHLA 25 μM, PUG 25 μM, Heparin 200 μg/ml
RSV [26] = experiment: Analysis of drug effects post viral entry; assay type: cell-based, respiratory syncytial virus; conditions: RSV, HEp-2 cells; CHLA 1 μM, PUG 2 μM, Heparin 1 μg/ml
[27] = HEL cells, CHLA 60 μM, PUG 40 μM, Heparin 30 μg/ml
[28] = Huh-7.5 cells, CHLA 50 μM, PUG 50 μM, Heparin 1000 μg/ml
[29] = CHO-SLAM cells, CHLA 90 μM, PUG 50 μM, Heparin 10 μg/ml

Heparin [reference compound]
Window of antiviral effects: Free particle, inhibitory effect relative to DMSO control (HCMV [1]): + (+ 25–50%) | Window of antiviral effects: Attachment Method 2, inhibitory effect relative to DMSO control (HCV [2]): +++ (+++ > 75%) | Window of antiviral effects: Post-infection, inhibitory effect relative to DMSO control (DENV-2 [3]): - (- < 25%) | Window of antiviral effects: Penetration, inhibitory effect relative to DMSO control (HCMV [4]; [27]): + (+ 25–50%) | protection of the host cell from infection during virus penetration (HCMV [4]; shift 4°C to 37°C, Figure 4): < 40% | Window of antiviral effects: Penetration, inhibitory effect relative to DMSO control (HCV [5]; [28]): - (- < 25%) | protection of the host cell from infection during virus penetration (HCV [5]; shift 4°C to 37°C, Figure 4): < 40% | Window of antiviral effects: Free particle, inhibitory effect relative to DMSO control (DENV-2 [6]): ++ (++ 50–75%) | Window of antiviral effects: Attachment Method 1, inhibitory effect relative to DMSO control (HCMV [7]): ++ (++ 50–75%) | Window of antiviral effects: Attachment Method 2, inhibitory effect relative to DMSO control (DENV-2 [8]): +++ (+++ > 75%) | Window of antiviral effects: Cell-to-cell spread, inhibitory effect relative to DMSO control (RSV [9]; HEp-2 cells, CHLA 1 μM, PUG 2 μM, Heparin 1 μg/ml): - (- < 25%) | effect on viral plaque size (cell-to-cell spread) (RSV [9]; Figure 7): limited effect | Window of antiviral effects: Attachment Method 1, inhibitory effect relative to DMSO control (MV [10]): +++ (+++ > 75%) | Window of antiviral effects: Attachment Method 1, inhibitory effect relative to DMSO control (HCV [11]): + (+ 25–50%) | Window of antiviral effects: Cell-to-cell spread, inhibitory effect relative to DMSO control (HCMV [12]; [27]): - (- < 25%) | effect on viral plaque size (cell-to-cell spread) (HCMV [12]; Figure 7): limited effect | Window of antiviral effects: Cell-to-cell spread, inhibitory effect relative to DMSO control (DENV-2 [13]; DENV-2, Vero cells, CHLA 25 μM, PUG 25 μM, Heparin 200 μg/ml): - (- < 25%) | effect on viral plaque size (cell-to-cell spread) (DENV-2 [13]; DENV-2, Figure 7): limited effect | Window of antiviral effects: Post-infection, inhibitory effect relative to DMSO control (HCV [14]): + (+ 25–50%) | Window of antiviral effects: Penetration, inhibitory effect relative to DMSO control (MV [15]; [29]): + (+ 25–50%) | protection of the host cell from infection during virus penetration (MV [15]; shift 4°C to 37°C, Figure 4): < 40% | Window of antiviral effects: Cell-to-cell spread, inhibitory effect relative to DMSO control (HCV [16]; [28]): - (- < 25%) | effect on viral plaque size (cell-to-cell spread) (HCV [16]; Figure 7): limited effect | Window of antiviral effects: Cell-to-cell spread, inhibitory effect relative to DMSO control (MV [17]; [29]): - (- < 25%) | effect on viral plaque size (cell-to-cell spread) (MV [17]; Figure 7): limited effect | Window of antiviral effects: Free particle, inhibitory effect relative to DMSO control (RSV [18]): + (+ 25–50%) | maximum inhibition of ADV-5 by soluble heparin (ADV-5): ≤ 50% | Window of antiviral effects: Post-infection, inhibitory effect relative to DMSO control (HCMV [19]): - (- < 25%) | Window of antiviral effects: Penetration, inhibitory effect relative to DMSO control (DENV-2 [20]): ++ (++ 50–75%) | Window of antiviral effects: Attachment Method 1, inhibitory effect relative to DMSO control (RSV [21]): +++ (+++ > 75%) | Window of antiviral effects: Attachment Method 2, inhibitory effect relative to DMSO control (RSV [22]): ++ (++ 50–75%) | Window of antiviral effects: Post-infection, inhibitory effect relative to DMSO control (MV [23]): - (- < 25%) | Window of antiviral effects: Attachment Method 2, inhibitory effect relative to DMSO control (HCMV [24]): +++ (+++ > 75%) | Window of antiviral effects: Attachment Method 1, inhibitory effect relative to DMSO control (DENV-2 [25]): +++ (+++ > 75%) | Window of antiviral effects: Post-infection, inhibitory effect relative to DMSO control (RSV [26]): - (- < 25%)

— article PMC3750913 (BMC Microbiology, 2013)
